Here are results for seven compounds from paper PMC9103660, “Two Novel Antihypertensive Peptides Identified in Millet Bran Glutelin-2 Hydrolysates: Purification, In Silico Characterization, Molecular Docking with ACE and Stability in Various Food Processing Conditions” (Foods, 2022).

For series [1] the following is noted: proline-rich literature peptides; cited from earlier work. The text has this:
ACE-inhibitory peptides should have sufficient resistance to digestion by proteases existing in the gastrointestinal tract to exert antihypertension activity in the body.

Series [2] concerns ACE. Further details: method as in 2 sources, ref 34, 35 = [34]; PMID 32220144; doi:10.1111/1750-3841.15115; 34. Zheng Y.J. Wang X. Zhuang Y.L. Li Y. Shi P.Q. Tian H.L. Li X.T. Chen X. Isolation of novel ACE-inhibitory peptide from naked oat globulin hydrolysates in silico approach: Molecular docking, in viv || [35]; PMID 29606478; doi:10.1016/j.foodchem.2018.02.107; 35. Tu M. Wang C. Chen C. Zhang R. Liu H. Lu W. Jiang L. Du M. Identification of a novel ACE-inhibitory peptide from casein and evaluation of the inhibitory mechanisms Food Chem. 2018 256 98 104 10.10 ||| ref 20 = [20]; doi:10.1016/j.jff.2016.11.021; 20. Zheng Y.J. Li Y. Zhang Y.L. Ruan X.H. Zhang R.G. Purification, characterization, synthesis, in vivo ACE inhibition and in vitro antihypertensive activity of bioactive peptides derived from palm ke. As to conditions: cited from earlier work; for IC50: literature peptides, read-out: IC50 (ACE inhibition).

Series [3] deals with ACE. Nature of the series: ACE inhibition after simulated gastrointestinal digestion. In kind it is in vitro ADME. The settings on record: simulated gastric fluid (pepsin, pH 2.0) 90 min then simulated intestinal fluid (trypsin, bile salt, pH 6.8) 180 min, 37 °C, peptide 1 mg/mL; read-out ACE IC50 before/after. As to the method:
As per the same procedure described by Jimsheena and Gowda, the inhibition of ACE was evaluated by comparing the quantity of produced hippuric acid before and after the addition of the peptides. The IC50 value was calculated from the regression equation of ACE inhibition percentage for different concentrations of the sample and defined as the concentration of sample inhibiting ACE activity by 50%.
Mixtures of trypsin (0.45 g), pig bile salt (3 g) and NaHCO3 (6.25 g) dissolved in 100 mL of dH2O (pH 6.8) were used to simulate the intestinal fluid, whereas pepsin (40 mg) and NaCl (0.877 g) dissolved in 100 mL of dH2O (pH 2.0) were used to simulate the gastric fluid (Sun et al., 2021). Peptide solutions (dissolved in ultrapure water, 1 mg/mL) were incubated at 37 °C in a stirring bath (140 r/min) for 15 min, and then the simulated gastric fluid was added (gastric fluid: peptide solution = 1: 10 v/v), and the mixture was further incubated at 37 °C (140 r/min) for 90 min. Then, the reaction solution was adjusted to pH 6.8 with Na2HPO4. The simulated intestinal fluid (the fluid: peptide solution = 1: 10, v/v) was added, and the mixture was stirred (140 r/min) at 37 °C for 180 min. All reaction solutions were heated at 100 °C for 8 min to inactivate the enzymes. The ACE inhibition activities of the peptides before and after digestion were separately determined to evaluate their stability.

Entries after “also recorded” stand apart in the source; their conditions may differ. Peptide text beside a SMILES is read from it.

As for SSYYPFK, the “stability during gastrointestinal digestion” value in series [1] is listed as “excellent stability”. In series [2], the “inhibition mode towards ACE” value is listed as “a competitive inhibitor” and the half-inhibitory concentration (IC50) was 91.8 µM.

For the compound “ELHPQ [proline-rich peptide identified in canary seeds]”, the “stability during gastrointestinal digestion” value in series [1] is on record as “excellent stability”.

Regarding `CSCC[C@H](NC(=O)[C@@H]1CCCN1C(=O)[C@@H]1CCCN1)C(=O)N[C@@H](Cc1c[nH]c2ccccc12)C(=O)N1CCC[C@H]1C(=O)N[C@@H](Cc1ccccc1)C(=O)N[C@H](C(=O)O)C(C)C` [PPMWPFV, Pro-Pro-Met-Trp-Pro-Phe-Val] (H-PPMWPFV-OH), in series [3], the “stability during simulated gastrointestinal digestion” value is given as “resistant; also recorded: relatively stable; also recorded: relatively high stability”.

“KPVPR [proline-rich peptide identified in canary seeds]”: the “stability during gastrointestinal digestion” value in series [1] is recorded as “excellent stability”.

For NMAINPSKENLCSTFCK, in series [2], the “inhibition mode towards ACE” value was “a competitive inhibitor of ACE” and the IC50 was 129 µM.

Regarding `CC(C)C[C@H](NC(=O)[C@H](CC(C)C)NC(=O)[C@@H]1CCCN1)C(=O)N[C@@H](CCCCN)C(=O)O` [PLLK, Pro-Leu-Leu-Lys] (H-PLLK-OH), the “stability during simulated gastrointestinal digestion” value in series [3] is reported as “resistant; also recorded: relatively stable; also recorded: relatively high stability”.

In the case of “LHPQ [proline-rich peptide identified in canary seeds]”, the “stability during gastrointestinal digestion” value in series [1] is reported as “excellent stability”.
